Here are results for three molecules from publication PMC10803328 (Scientific Reports, 2024).

In one data set the target is α4β2 nAChR. Also noted: method as in PMID 30872534, PMID 24556591. The conditions noted are these: in vitro binding assay, literature; cited from earlier work.
The target in the next data set is α7-nAChR. Also noted: method as in PMID 30872534, PMID 24556591. Conditions: cited from earlier work; for Ki: in vitro binding assay, literature.
Data set [1] relates to PSAM^4-GlyR. Also noted: method as in PMID 30872534. The conditions noted are these: rhesus monkey, globus pallidus internal region (GPi), PSAM^4-GlyR activated by the ligand; cited from earlier work.
A short description of data set [2]: Measurement of apparent pKa by radiotracer partition. The conditions noted are these: cyclohexane / sodium phosphate buffer partition; cyclohexane / phosphate buffers pH 3.0-10.5, n = 3. The data set is classed as physicochemical. On the procedure: The method was similar to that followed previously for other radiotracers. Sodium phosphate buffers (0.15 M), with pH values of 3.0, 3.5, 4.0, 4.5, 5.0, 5.5, 6.0, 6.5, 7.0, 7.4, 8.0, 8.5, 9.0, 9.5, 10.0, and 10.5, were prepared from 0.15 M NaH2PO4 and 0.1 M Na2HPO4 and distributed (1 mL per tube) as the aqueous phase. [^11C]uPSEM, formulated in ethanol (20 µL, 2.4 ± 0.3 MBq, n = 48), was added to each tube. Triple sets of such tubes were prepared simultaneously. Cyclohexane (1.0 mL) was added to each of the tubes containing the buffer and the [^11C]uPSEM and then vigorously vortexed for 1 min. The tubes were then centrifuged for one minute. The two phases in each tube were separated, sampled (50 µL aqueous, 200 µL organic) and counted in a γ-counter. Distribution coefficients at each pH were calculated by dividing the counts detected in the organic phase by the total activity present in both phases. These distribution coefficients were plotted versus pH and nonlinear regression analysis applied with GraphPad Prism version 4.03 for windows (GraphPad Software; San Diego, CA) using “One site competition” curve-fitting. […] The radiochemical purity of the [^11C]uPSEM preparation was 98.8% as determined by radio-HPLC on an X-Terra […] column (10 µm, 7.8 × 300 mm; Waters Corp.) and a mobile phase of MeOH:H2O:Et3N (55:45:0.1, by vol) at 5.0 mL/min.

Data set [3] concerns PSAM^4-GlyR. Also noted: method as in PMID 30872534. The conditions noted are these: PSAM^4-GlyR transduced mouse; cited from earlier work.
Data set [4] deals with T1, PSAM^4-GlyR (Homo sapiens, UniProt P23415+P36544, L131G/Q139L/Y217F). Also noted: expressed in transfected cells; method as in PMID 30872534, PMID 24556591, PMID 36279419. Conditions: read-out: PSAM^4-GlyR (Ki); in vitro binding assay, literature; cited from earlier work.
For the next data set, the system named is P-gp. The conditions noted are these: cited from earlier work.
For data set [5], the target named is T1, PSAM^4-GlyR. Briefly: Competitive binding assay with [^3H]ASEM on membranes of HEK-293 cells transduced with PSAM^4-GlyR. Also noted: expressed in transfected cells; host or cells: HEK-293 (membrane fraction). As for the experimental part:
HEK-293 cells were transduced with plasmids (5 μg per dish) of encoding PSAM^4-GlyR (in pcDNA3.1) or a control vector (GFP) and harvested 48 h after transduction. Cells were suspended in Tris–HCl buffer (50 mM, pH 7.4) supplemented with a protease inhibitor cocktail (1:100, Sigma-Aldrich; St Louis, MO). HEK-293 cells were disrupted with a Polytron homogenizer (Kinematica; Basel, Switzerland). Homogenates were centrifuged at 48,000g (50 min, 4 °C) and washed twice in the same conditions to isolate the membrane fraction. Protein was quantified by the bicinchoninic acid method (Pierce, ThermoFisher Scientific, MA). […] In all cases, free and membrane-bound radioligand were separated by rapid filtration of 500-μL aliquots in a 96-well plate harvester (Brandel; Gaithersburg, MD) and washed with ice-cold Tris–HCl buffer (2 mL). Microscint-20 scintillation liquid (65 μL per well, PerkinElmer; Boston, MA) was added to the filter plates. Plates were incubated overnight at room temperature and radioactivity counts were determined in a MicroBeta2 plate counter (PerkinElmer) with an efficiency of 41%. One-site competition curves were fitted using Prism 7 (GraphPad Software; La Jolla, CA). Ki values were calculated using the Cheng-Prusoff equation.

Data set [6] concerns PSAM^4-GlyR. Also noted: method as in PMID 30872534. The conditions noted are these: area CA1 of mouse hippocampal neurons, acting on PSAM^4-GlyR; cited from earlier work.

Structures are written as SMILES. “Also recorded” adds a separate entry of the source. Read-outs that look alike come from different tables or passages of the source.

T1 sequence (P36544+P23415 fused P36544:L131G/P36544:Q139L/P36544:Y217F): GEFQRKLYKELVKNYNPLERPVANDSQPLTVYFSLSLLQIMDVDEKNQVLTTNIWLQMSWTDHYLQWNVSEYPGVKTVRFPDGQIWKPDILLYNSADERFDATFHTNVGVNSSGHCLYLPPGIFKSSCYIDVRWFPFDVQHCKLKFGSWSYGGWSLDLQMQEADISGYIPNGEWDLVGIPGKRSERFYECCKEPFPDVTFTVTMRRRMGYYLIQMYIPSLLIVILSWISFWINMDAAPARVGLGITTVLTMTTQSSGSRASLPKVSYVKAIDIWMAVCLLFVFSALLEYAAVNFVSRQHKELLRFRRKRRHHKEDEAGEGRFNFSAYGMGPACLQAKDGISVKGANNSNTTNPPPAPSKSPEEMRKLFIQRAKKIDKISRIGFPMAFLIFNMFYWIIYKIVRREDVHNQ

With `O=S1(=O)c2cc(N3CCN4CCC3CC4)ccc2-c2cccc(F)c21` [ASEM], the Ki is 4000 nM on α4β2 nAChR and 0.3 nM on α7-nAChR.
Turning to `c1cnc2cc3c(cc2n1)[C@@H]1CNC[C@H]3C1` [Varenicline, varenicline], in the data set with PSAM^4-GlyR [1], the “effect on neuronal firing rate” value is “reduces neuronal firing rate”.
As to `Cn1c(=O)cnc2cc3c(cc21)C1CNCC3C1` (centres unmarked) [uPSEM792, 1-Methyl-1,6,7,8,9,10-hexahydro-2H-6,10-methanoazepino[4,5-g]quinoxalin-2-one], the pKa in [2] came out at 9.92 ± 0.05. Besides, the “affinity to α7-nAChRs (in words)” value in the data set on α7-nAChR is reported as “low affinity”. For the same molecule, the figures for the Ki at α7-nAChR, at PSAM^4-GlyR [4] and on PSAM^4-GlyR [5] were 8000 nM, 0.7 nM and 2.62 nM, respectively. Also, in the data set with PSAM^4-GlyR [3], the “blocking of [^18F]ASEM binding in brain” value was “able to block [^18F]ASEM binding”. For the same molecule, in the data set on P-gp, the “P-gp substrate in vitro” value was “not a P-gp substrate in vitro; also recorded: not to be a P-gp substrate”. The neuronal silencing entry in the data set with PSAM^4-GlyR [6] was “Neuronal silencing has been shown”.

One may read the Ki as a measure of affinity in units of concentration, obtained from inhibition or displacement. As a reminder, the pKa is the pH at which an ionisable group is half protonated.
